The target of experiment [1] is T1, bovine serum albumin (BSA) (Bos taurus, UniProt P02769).
T1 construct: gene ALB
The experiment can be described thus: fluorescence anisotropy titration of compound […]) with protein, Langmuir isotherm fit. Type of experiment: binding.

Experiment [2] concerns the target T2, human serum albumin (HSA) (Homo sapiens, UniProt P02768).
T2 construct: gene ALB
The description is as above. Format: binding.

T2 sequence (P02768 25-609): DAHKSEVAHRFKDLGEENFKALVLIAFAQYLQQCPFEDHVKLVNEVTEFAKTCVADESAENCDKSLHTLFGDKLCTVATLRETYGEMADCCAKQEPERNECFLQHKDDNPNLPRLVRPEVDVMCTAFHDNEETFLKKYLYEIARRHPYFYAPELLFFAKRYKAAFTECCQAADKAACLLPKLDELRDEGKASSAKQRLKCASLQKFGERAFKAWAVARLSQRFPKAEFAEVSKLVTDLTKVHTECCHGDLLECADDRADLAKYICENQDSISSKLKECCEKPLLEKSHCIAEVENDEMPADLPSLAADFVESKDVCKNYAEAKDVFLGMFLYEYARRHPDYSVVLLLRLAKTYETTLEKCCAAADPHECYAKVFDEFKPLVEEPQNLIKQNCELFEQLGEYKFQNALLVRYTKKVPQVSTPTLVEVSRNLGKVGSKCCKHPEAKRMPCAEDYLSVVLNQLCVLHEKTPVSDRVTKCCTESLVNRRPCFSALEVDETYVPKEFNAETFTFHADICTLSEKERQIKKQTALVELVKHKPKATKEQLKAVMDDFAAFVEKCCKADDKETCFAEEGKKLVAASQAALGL
T1 sequence (P02769 25-607): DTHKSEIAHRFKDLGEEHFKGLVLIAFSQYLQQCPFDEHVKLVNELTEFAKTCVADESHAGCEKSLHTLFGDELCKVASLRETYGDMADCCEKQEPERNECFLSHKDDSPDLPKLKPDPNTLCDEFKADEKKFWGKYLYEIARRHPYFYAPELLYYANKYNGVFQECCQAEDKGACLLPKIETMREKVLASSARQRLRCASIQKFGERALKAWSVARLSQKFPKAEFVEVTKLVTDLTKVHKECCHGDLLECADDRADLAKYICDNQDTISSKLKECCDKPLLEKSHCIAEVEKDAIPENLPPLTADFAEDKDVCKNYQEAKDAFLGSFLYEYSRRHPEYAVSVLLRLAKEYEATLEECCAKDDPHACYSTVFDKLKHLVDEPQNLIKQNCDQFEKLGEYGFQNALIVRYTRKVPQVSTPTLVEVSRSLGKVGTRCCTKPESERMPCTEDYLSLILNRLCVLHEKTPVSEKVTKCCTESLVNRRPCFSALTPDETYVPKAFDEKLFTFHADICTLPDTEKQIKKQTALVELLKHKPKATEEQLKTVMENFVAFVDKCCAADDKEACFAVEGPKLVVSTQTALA

A word on the Kd: it is the constant that tells how readily two partners part at equilibrium. The low end stands for tighter binding, the high end for weaker binding. On to `COC(=O)CCNC(=O)c1ccc2cc(N(CC(=O)OC(C)(C)C)c3ccc(OC)cc3)ccc2c1` [compound 5, methyl 3-[(6-{[2-(tert-butoxy)-2-oxoethyl] (4-methoxyphenyl)amino}naphthalen-2-yl)formamido]propanoate], for which the Kd was 1930 nM in experiment [1] and 2050 nM in experiment [2].
